From patent publication US8425447B2, “Selective cytopheresis devices and related methods thereof” (The Regents of the University of Michigan, priority 2007, dated 2013)

System: Leukocytes isolated from normal healthy individuals
Experiment: In vitro release from leukocytes adhered to polysulfone membranes, with or without LPS
Assay type: cell-based, human
Method: Leukocytes were isolated from normal healthy individuals using established methods. The leukocytes (10^6 cells per well) were placed into 12-well tissue culture plates containing 14×14 mm squares of polysulfone membranes (Fresenius, Walnut Creek, Calif.) and allowed to adhere for 60 minutes at 37° C. in RPMI media. The media was removed, cells washed with PBS, and the removed supernatants were analyzed for cell release. RPMI media with citrate (Cai=0.25 mmol/L) or without citrate (Cai=0.89 mmol/L) was used to achieve the Cai levels described in Table 5 below. Each calcium condition also had media with or without lipopolysaccharide (LPS, 1 μg/mL) to activate the leukocytes.
The cells were exposed to these conditions for […] and removed from the media to assess release of lactoferrin (LF) and myeloperoxidase (MPO), proteins in exocytotic vesicles from neutrophils, and cytokines, IL-6 and IL-8, released from leukocytes. These compounds were assayed with commercially available Elisa kits (R & D Systems, Cell Sciences, and EMD BioSciences).

[1] = with LPS (1 μg/mL), citrate media Cai 0.25 mmol/L, 60 seconds
[2] = without LPS, citrate media Cai 0.25 mmol/L, 60 seconds

For `O=C(O)CC(O)(CC(=O)O)C(=O)O` [Citrate], the “increases in LF, MPO, IL-6, or IL-8 on LPS stimulation” value (citrate-containing media with low Cai, in contrast to normal Cai media) was “no increases”, the “IL-6 release, Stimulated” value [1] was 2.9 pg/mL/10^6 cells and the “IL-8 release, Stimulated” value [1] was 19.4 ng/mL/10^6 cells. The “Lactoferrin release, Stimulated” value [1] was 187 ng/mL/10^6 cells, the “Myeloperoxidase release, Stimulated” value [1] was 270 ng/mL/10^6 cells and the “IL-6 release, Baseline” value [2] was 3.3 pg/mL/10^6 cells. The “IL-8 release, Baseline” value [2] was 25.8 ng/mL/10^6 cells, the “Lactoferrin release, Baseline” value [2] was 221 ng/mL/10^6 cells and the “Myeloperoxidase release, Baseline” value [2] was 268 ng/mL/10^6 cells.
